Patent US9107914B2, “Beta-carbolines for use in the treatment of hearing loss and vertigo” (AudioCure Pharma GmbH, priority 2009, dated 2015)

How the values were obtained:
[1] = tested on: human SH-SY5Y neuroblastoma cells; assay: Differentiation model / neurite length in human neuroblastoma cells; type: cell-based; settings: SH-SY5Y cells, 14 days; also: key: +: marginally better than 9-methyl-β-carboline; ±: equal to 9-methyl-β-carboline; −: marginally worse than 9-methyl-β-carboline
Description: Human neuroblastoma cells were utilised for this model. These are permanent cells, which are present as an indifferent type in culture. They can be activated to differentiate, i.e. transformation into neuronal cells, by addition of specific substances such as retinoic acid, […] (BDNF) or activator of the enzyme, protein kinase C to the culture medium. We used this cell system to analyse whether beta-carbolines can transform the indifferent cells into the neuronal type. Criteria were: less proliferation (less cells per field of view); smaller cell bodies (transformation from the indifferent type to the neuronal type); cytodendrites (neuritis), which provide connections to neighbouring cells or clusters of neighbouring cells.
Human SH-SY5Y neuroblastoma cells were incubated in culture for 14 days with solvent (Ko) or test substance. A shift of the graph to the right side for a test substance, pointed to an increase of neurite length, when compared to the graph for the control substance. Statistical differences between the treated groups were calculated with the Tukey's Multiple Comparison-Test.
Shown are the cumulative frequency distributions of neurite lengths, determined in at least 20 randomly selected visual fields (each 640.000 μm^2) in three independent experiments. A steep rise pointed to a predominance of short neuritis, wherein for example in control cells, a less steep rise signified a greater number of longer neurites. The horizontal maximum indicated the maximal neurite length of the respective treatment group. […] The effects are dose- and substance-dependent: 1-methyl-β-carboline <6-methoxy-9-methyl-β-carboline <9-methyl-β-carboline <9-fluorethyl-β-carboline).
The effects of the other inventive β-carbolines (compounds A-L and VI-XX) on neurite length were determined, as described above, in human SH-SY5Y neuroblastoma cells after 14 days.

[2] = tested on: BDNF, GDNF, NGF and NPY in human SH-SY5Y neuroblastoma cells; assay: Gene expression of growth factors by reverse transcriptase-PCR (Table 2 summary); type: cell-based; settings: after 2 and 14 days; also: key: +: marginally better than 9-methyl-β-carboline; ±: equal to 9-methyl-β-carboline; −: marginally worse than 9-methyl-β-carboline
Procedure: Next, it was investigated, whether the substances could induce the formation of nerve growth factors in human SH-SY5Y neuroblastoma cell. After 2 and 14 days the cells were harvested and the expression of the target gene and the house keeping gene was determined via reverse transcriptase-PCR.
The effects of the other inventive β-carbolines (compounds A-L and VI-XX) on the gene expression of BDNF, GDNF, NGF and NPY were determined, as described above, in human SH-SY5Y neuroblastoma cells after 2 and 14 days.

inner ear of guinea pigs = assay: Prophylaxis of hearing damages in an animal model, gentamicin and etacrynic acid (Example 30); type: in vivo; settings: infusion to the round window recess, gentamicin and etacrynic acid i.v.
Procedure: A solution containing β-carboline was infused continuously into the recess in front of the membrane of the round window of guinea pigs by a osmotic mini-pump for three days. The following β-carbolines were tested individually in this experiment: 9-methyl-β-carboline, compounds XI, XII, XVIII, XIX as well as C to L.
Then, a standard dose of gentamicin and etacrynic acid was injected intravenously into guinea pigs. Gentamicin and etacrynic acid damage the inner ear. Typically, they are used as toxins to induce deafness in such studies. The infusion was continued for further two days. Then, the electrophysiological activity of the nerve cells of the brain stem, which transmit the impulses of the inner ear, was deduced after acoustic irradiation of the ear with […]. The non-β-carboline-treated ear served as intraindividual control (Prieskorn D M, Miller J M. Technical report: chronic and acute intracochlear infusion in rodents. Hear Res, 2000; 140(1-2): 212-215). Moreover, animals were infused with 9-Me-BC only but not with gentamicin as a further control.
The measured electrophysiological activity of the nerve cells of the acoustic nerve (hearing threshold) served as a measure of the degree of therapeutic effect of the used β-carbolines on the inner ear. As can be learned from Table 3, the used β-carbolines show the increase in electrophysiological activity of the nerve cells of the acoustic nerve. It can be concluded from this that β-carbolines are useful for the treatment of hearing damages, vertigo, and vestibular disorders.

SMILES: C/C=C/C(C)=C\n1c2ccccc2c2ccnc(Cl)c21 [compound (IX)]
- differentiation / neurite length in comparison to 9-methyl-β-carboline [1]: −
- gene expression of BDNF, GDNF, NGF and NPY in comparison to 9-methyl-β-carboline [2]: −
- effect on the inner ear (electrophysiological activity, hearing threshold) in comparison to 9-methyl-β-carboline (inner ear of guinea pigs): −

SMILES: COc1ccc2c(c1)c1ccncc1n2C(C)C [compound (VII)]
- differentiation / neurite length in comparison to 9-methyl-β-carboline [1]: −
- gene expression of BDNF, GDNF, NGF and NPY in comparison to 9-methyl-β-carboline [2]: ±
- effect on the inner ear (electrophysiological activity, hearing threshold) in comparison to 9-methyl-β-carboline (inner ear of guinea pigs): −

SMILES: COc1ccc2c(c1)c1ccncc1n2C1CC1 [compound (XI)]
- differentiation / neurite length in comparison to 9-methyl-β-carboline [1]: +
- gene expression of BDNF, GDNF, NGF and NPY in comparison to 9-methyl-β-carboline [2]: ±
- effect on the inner ear (electrophysiological activity, hearing threshold) in comparison to 9-methyl-β-carboline (inner ear of guinea pigs): ±

SMILES: Cn1c2ccc(OC(F)(F)F)cc2c2ccncc21 [compound (XII)]
- differentiation / neurite length in comparison to 9-methyl-β-carboline [1]: +
- gene expression of BDNF, GDNF, NGF and NPY in comparison to 9-methyl-β-carboline [2]: +
- effect on the inner ear (electrophysiological activity, hearing threshold) in comparison to 9-methyl-β-carboline (inner ear of guinea pigs): +

SMILES: CN(C)c1ccc2c(c1)c1ccncc1n2C [compound (XIII)]
- differentiation / neurite length in comparison to 9-methyl-β-carboline [1]: ±
- gene expression of BDNF, GDNF, NGF and NPY in comparison to 9-methyl-β-carboline [2]: ±
- effect on the inner ear (electrophysiological activity, hearing threshold) in comparison to 9-methyl-β-carboline (inner ear of guinea pigs): ±

SMILES: COc1nccc2c3cc(Cl)ccc3n(C)c12 [compound (XIV)]
- differentiation / neurite length in comparison to 9-methyl-β-carboline [1]: −
- gene expression of BDNF, GDNF, NGF and NPY in comparison to 9-methyl-β-carboline [2]: −
- effect on the inner ear (electrophysiological activity, hearing threshold) in comparison to 9-methyl-β-carboline (inner ear of guinea pigs): −

SMILES: Cc1ccc2c(c1)c1ccnc(C(C)C)c1n2C [compound (XVI)]
- differentiation / neurite length in comparison to 9-methyl-β-carboline [1]: −
- gene expression of BDNF, GDNF, NGF and NPY in comparison to 9-methyl-β-carboline [2]: −
- effect on the inner ear (electrophysiological activity, hearing threshold) in comparison to 9-methyl-β-carboline (inner ear of guinea pigs): −

SMILES: Cc1ccc2c(c1)c1ccncc1n2C [compound (XVII)]
- differentiation / neurite length in comparison to 9-methyl-β-carboline [1]: ±
- gene expression of BDNF, GDNF, NGF and NPY in comparison to 9-methyl-β-carboline [2]: ±
- effect on the inner ear (electrophysiological activity, hearing threshold) in comparison to 9-methyl-β-carboline (inner ear of guinea pigs): −

SMILES: C=CCn1c2ccccc2c2ccncc21 [compound (XX)]
- differentiation / neurite length in comparison to 9-methyl-β-carboline [1]: −
- gene expression of BDNF, GDNF, NGF and NPY in comparison to 9-methyl-β-carboline [2]: ±
- effect on the inner ear (electrophysiological activity, hearing threshold) in comparison to 9-methyl-β-carboline (inner ear of guinea pigs): ±

SMILES: CCCn1c2ccccc2c2ccncc21 [compound A]
- differentiation / neurite length in comparison to 9-methyl-β-carboline [1]: −
- gene expression of BDNF, GDNF, NGF and NPY in comparison to 9-methyl-β-carboline [2]: −
- effect on the inner ear (electrophysiological activity, hearing threshold) in comparison to 9-methyl-β-carboline (inner ear of guinea pigs): −

SMILES: CCCCCCn1c2ccccc2c2ccncc21 [compound B]
- differentiation / neurite length in comparison to 9-methyl-β-carboline [1]: −
- gene expression of BDNF, GDNF, NGF and NPY in comparison to 9-methyl-β-carboline [2]: −
- effect on the inner ear (electrophysiological activity, hearing threshold) in comparison to 9-methyl-β-carboline (inner ear of guinea pigs): −

SMILES: CCCCCCCCCCCCCCn1c2ccccc2c2ccncc21 [compound C]
- differentiation / neurite length in comparison to 9-methyl-β-carboline [1]: ±
- gene expression of BDNF, GDNF, NGF and NPY in comparison to 9-methyl-β-carboline [2]: ±
- effect on the inner ear (electrophysiological activity, hearing threshold) in comparison to 9-methyl-β-carboline (inner ear of guinea pigs): +

SMILES: C=CCn1c2ccccc2c2ccncc21 [compound D]
- differentiation / neurite length in comparison to 9-methyl-β-carboline [1]: +
- gene expression of BDNF, GDNF, NGF and NPY in comparison to 9-methyl-β-carboline [2]: +
- effect on the inner ear (electrophysiological activity, hearing threshold) in comparison to 9-methyl-β-carboline (inner ear of guinea pigs): −

SMILES: CC(C)Cn1c2ccccc2c2ccncc21 [compound E]
- differentiation / neurite length in comparison to 9-methyl-β-carboline [1]: +
- gene expression of BDNF, GDNF, NGF and NPY in comparison to 9-methyl-β-carboline [2]: ±
- effect on the inner ear (electrophysiological activity, hearing threshold) in comparison to 9-methyl-β-carboline (inner ear of guinea pigs): −

SMILES: CCn1c2ccccc2c2ccncc21 [compound F]
- differentiation / neurite length in comparison to 9-methyl-β-carboline [1]: ±
- gene expression of BDNF, GDNF, NGF and NPY in comparison to 9-methyl-β-carboline [2]: ±
- effect on the inner ear (electrophysiological activity, hearing threshold) in comparison to 9-methyl-β-carboline (inner ear of guinea pigs): ±

SMILES: COCCn1c2ccccc2c2ccncc21 [compound G]
- differentiation / neurite length in comparison to 9-methyl-β-carboline [1]: ±
- gene expression of BDNF, GDNF, NGF and NPY in comparison to 9-methyl-β-carboline [2]: ±
- effect on the inner ear (electrophysiological activity, hearing threshold) in comparison to 9-methyl-β-carboline (inner ear of guinea pigs): +

SMILES: C#CCn1c2ccccc2c2ccncc21 [compound H]
- differentiation / neurite length in comparison to 9-methyl-β-carboline [1]: +
- gene expression of BDNF, GDNF, NGF and NPY in comparison to 9-methyl-β-carboline [2]: ±
- effect on the inner ear (electrophysiological activity, hearing threshold) in comparison to 9-methyl-β-carboline (inner ear of guinea pigs): +
